Laboratory results reported in patent US10466259B2, “Synthetic antigen compositions for detecting anti-phosphatidylethanolamine antibodies” (Northwestern Univeristy, priority 2015, dated 2019).
“Also recorded” adds a separate entry of the source.

Key:
Type in all cases: binding, human
[1] = system: cofactor-independent IgG aPE; test: ELISA with affinity-purified total IgG, cofactor-independent sample; details: FIG. 18, total IgG 200 μg/ml
Protocol: (§1) FIG. 18. aPE reactivity to egg PE, 20:4 PE and 18:1 PE using affinity-purified total IgG from a cofactor-dependent and a cofactor-independent IgG aPE patient plasma. For each ELISA test, the total IgG was used at a concentration of 200 μg/ml. […] The values are means of triplicates.
(§2) To minimize uncertainties caused by potential confounding factors in the serum and variations in immunoglobulin contents, the total IgG was isolated from representative aPE patient serum samples and was used to validate ELISA assays.
(§3) Microplates were coated using Egg PE, 20:4 PE or 18:1 PE for IgG aPE ELISA for normal human serum, a representative cofactor-dependent and cofactor-independent patient serum.

[2] = system: cofactor-independent aPE IgM; test: ELISA of synthetic PE compositions, cofactor-independent aPE IgM; details: FIG. 9
Protocol: FIGS. 12A-B. Determination of PE coating amount and its impact on ELISA. A, B. determination of PE coating Amount. The indicated amount of PE was coated on 96 well plate and Elisa was performed. The relative OD405 value was deducted the normal serum value. The error bar represents SEM, n=3. A for egg PE, B for 20% 18:0 PE, 13.3% 18:1 PE, 39.9% 20:4 PE, and 26.6% 22:6 PE.
FIG. 13. A head-to-head comparison on the ELISA performance between egg PE and the synthetic formulation. The ELISA place was coated with 0.5 μg of egg PE or the kit formulation (20% 18:0 PE, 13.3% 18:1 PE, 39.9% 20:4 PE, and 26.6% 22:6 PE). OD405 was measured after ELISA and the relative OD value was subtracted from the normal human serum value. The net value was the mean of triplicates. A total 11 patient serum samples were tested for experiments.
Egg PE is currently the most widely used source of PE in ELISA tests for aPE.

[3] = system: cofactor-dependent IgG aPE; test: ELISA with affinity-purified total IgG, cofactor-dependent samples
Protocol: as §1
The values are means of triplicates.
as §2, §3

[4] = system: cofactor-independent aPE IgG; test: ELISA of synthetic PE compositions, cofactor-independent aPE IgG
Protocol: FIG. 15. Head-to-head comparison between egg PE and synthetic 20:4 PE on the ELISA for cofactor-independent aPE IgG reactivity. The 96 well plate was coated with 1 mg of indicated PE per well, OD405 was measured after ELISA and the relative OD value was determined by subtracting the OD value of normal human serum from the patient sample. […] A total 14 patient serums were tested.

cofactor-independent aPE = test: aPE ELISA, cofactor-independent patient serum (Example 1); details: representative patient serum, antigen 1 to 400 μg/ml, FIG. 1
Protocol: For aPE ELISA assays (ref. 14; herein incorporated by reference in its entirety), microtiter plates (PolySorp, Thermo Fisher, Pittsburgh, USA) were coated with 50 μl of a solution containing various concentrations of egg yolk PE or equal molar amounts of DOPE in ethanol:chloroform (4:1) and dried by evaporation at room temperature (RT) in an extractor shielded from light. Each well was blocked for two hours at RT with 10% BSA in PBS followed by 50 μl of patient serum diluted 1/100 in PBS for one hour at RT. aPEs were assessed by using alkaline phosphatase conjugated polyclonal antibody (Ab) against either human IgG or IgM. The plates were washed three times with PBS after blocking, serum and conjugate incubations. After color development with paranitrophenyl phosphate as substrate, optical density at 405 nm was measured. OD values of pooled normal serum control were subtracted from those of patient serum samples measured with the same PE concentration.
In order to determine the optimal concentration of antigen in aPE ELISA, wells were coated with a series of concentrations of egg yolk PE ranging from 1 to 400 μg/ml aPEs or normal control serum were assessed with alkaline phosphatase conjugated polyclonal Ab to either IgG or IgM. […]

Row | SMILES | aPE reactivity of purified total IgG [1] | ELISA performance compared with egg PE ([2]; 0.5 mg PE per well, relative OD405 normalized with egg PE, serum from patient J083006H, n=3) | ELISA performance compared with other single PE species ([2]; unsaturated versus saturated, longer versus shorter fatty acid tails) | aPE reactivity of purified total IgG ([3]; FIG. 18, cofactor-dependent sample, total IgG 200 μg/ml) | aPE reactivity of purified total IgG ([3]; FIG. 19, two other cofactor-dependent aPE samples) | OD value relative to egg PE ([4]; FIG. 14, representative patient serum sample, 1 mg PE per well) | relative ELISA performance against egg PE ([4]; FIG. 14, representative patient serum sample, 1 mg PE per well, n=3) | head-to-head ELISA performance versus egg PE ([4]; FIG. 15, 14 patient serum samples, P=0.012) | improvement of aPE reactivity versus egg PE ([4]; FIG. 15, some samples) | antigen concentration at which aPE reactivities peaked (cofactor-independent aPE)
1 | CCCCC/C=C\C/C=C\C/C=C\C/C=C\CCCC(=O)OC[C@H](COP(=O)(O)OCCN)OC(=O)CCC/C=C\C/C=C\C/C=C\C/C=C\CCCCC [20:4 PE, arachidonic PE] | significant reactivity; also recorded: prefer | out-perform egg PE | better performance | not | not | ~14 folds | highest OD value | out-performed egg PE significantly | ≥ 500% | –
2 | CCCCCCCC/C=C\CCCCCCCC(=O)OC[C@H](COP(=O)(O)OCCN)OC(=O)CCCCCCC/C=C\CCCCCCCC [DOPE, dioleoyl PE] | – | – | – | – | – | – | – | – | – | around 5 μg/ml
